Patent US9751865B2, “Dihydro-hydantoin derivatives with herbicidal activity” (SYNGENTA PARTICIPATIONS AG, priority 2013, dated 2017)

Assays:
Format in all cases: in vivo
Abutilon theophrasti [1] = assay: Pre-emergence herbicidal activity, ABUTH; parameters: key: 5=total damage to plant; 0=no damage to plant; details: application pre-emergence, 1000 g/Ha, evaluated after 13 days, scale 0-5
Method: (§1) Seeds of a variety of test species were sown in standard soil in pots. After cultivation for one day (pre-emergence) under controlled conditions in a glasshouse (at 24/16° C., day/night; 14 hours light; 65% humidity), the plants were sprayed with an aqueous spray solution derived from the formulation of the technical active ingredient in acetone/water (50:50) solution containing 0.5% Tween 20 (polyoxyethelyene sorbitan monolaurate, CAS RN 9005-64-5). The test plants were then grown in a glasshouse under controlled conditions (at 24/16° C., day/night; 14 hours light; 65% humidity) and watered twice daily. After 13 days, the test was evaluated (5=total damage to plant; 0=no damage to plant).

Amaranthus retroflexus [2] = assay: Pre-emergence herbicidal activity, AMARE; parameters: key: 5=total damage to plant; 0=no damage to plant; details: application pre-emergence, 1000 g/Ha, evaluated after 13 days, scale 0-5
Method: as §1

Echinochloa crus-galli [3] = assay: Pre-emergence herbicidal activity, ECHCG; details: application pre-emergence, 1000 g/Ha, evaluated after 13 days, scale 0-5
Method: as §1

Setaria faberi [4] = assay: Pre-emergence herbicidal activity, SETFA; details: application pre-emergence, 1000 g/Ha, evaluated after 13 days, scale 0-5
Method: as §1

Alopecurus myosuroides [5] = assay: Pre-emergence herbicidal activity, ALOMY; details: application pre-emergence, 1000 g/Ha, evaluated after 13 days, scale 0-5
Method: as §1

Zea mays [6] = assay: Pre-emergence herbicidal activity, ZEAMX; details: application pre-emergence, 1000 g/Ha, evaluated after 13 days, scale 0-5
Method: as §1

Abutilon theophrasti [7] = assay: Post-emergence herbicidal activity, ABUTH; parameters: key: 5=total damage to plant; 0=no damage to plant; details: application post-emergence, 1000 g/Ha, evaluated after 13 days, scale 0-5
Method: (§2) Seeds of a variety of test species were sown in standard soil in pots. After 8 days cultivation (post-emergence) under controlled conditions in a glasshouse (at 24/16° C., day/night; 14 hours light; 65% humidity), the plants were sprayed with an aqueous spray solution derived from the formulation of the technical active ingredient in acetone/water (50:50) solution containing 0.5% Tween 20 (polyoxyethelyene sorbitan monolaurate, CAS RN 9005-64-5). The test plants were then grown in a glasshouse under controlled conditions (at 24/16° C., day/night; 14 hours light; 65% humidity) and watered twice daily. After 13 days, the test was evaluated (5=total damage to plant; 0=no damage to plant).

Setaria faberi [8] = assay: Post-emergence herbicidal activity, SETFA; parameters: key: 5=total damage to plant; 0=no damage to plant; details: application post-emergence, 1000 g/Ha, evaluated after 13 days, scale 0-5
Method: as §2

Amaranthus retroflexus [9] = assay: Post-emergence herbicidal activity, AMARE; parameters: key: 5=total damage to plant; 0=no damage to plant; details: application post-emergence, 1000 g/Ha, evaluated after 13 days, scale 0-5
Method: as §2

Echinochloa crus-galli [10] = assay: Post-emergence herbicidal activity, ECHCG; parameters: key: 5=total damage to plant; 0=no damage to plant; details: application post-emergence, 1000 g/Ha, evaluated after 13 days, scale 0-5
Method: as §2

Zea mays [11] = assay: Post-emergence herbicidal activity, ZEAMX; parameters: key: 5=total damage to plant; 0=no damage to plant; details: application post-emergence, 1000 g/Ha, evaluated after 13 days, scale 0-5
Method: as §2

Alopecurus myosuroides [12] = assay: Post-emergence herbicidal activity, ALOMY; parameters: key: 5=total damage to plant; 0=no damage to plant; details: application post-emergence, 1000 g/Ha, evaluated after 13 days, scale 0-5
Method: as §2

## C[C@@H]1C(O)N(c2cc(C(F)(F)F)n(C)n2)C(=O)N1C (stereo partly drawn) [Compound A15, (5R)-4-hydroxy-1,5-dimethyl-3-[1-methyl-5-(trifluoromethyl)pyrazol-3-yl]imidazolidin-2-one]
Abutilon theophrasti [1]
  ABUTH damage score: 5
Amaranthus retroflexus [2]
  AMARE damage score: 5
Echinochloa crus-galli [3]
  ECHCG damage score: 2
Setaria faberi [4]
  SETFA damage score: 3
Alopecurus myosuroides [5]
  ALOMY damage score: 2
Zea mays [6]
  ZEAMX damage score: 1
Abutilon theophrasti [7]
  ABUTH damage score: 5
Setaria faberi [8]
  SETFA damage score: 5
Amaranthus retroflexus [9]
  AMARE damage score: 5
Echinochloa crus-galli [10]
  ECHCG damage score: 5
Zea mays [11]
  ZEAMX damage score: 5
Alopecurus myosuroides [12]
  ALOMY damage score: 5

## CC1NC(=O)N(c2cc(C(C)(C)C)n(C)n2)C1O (stereo not drawn) [Compound A17]
Abutilon theophrasti [1]
  ABUTH damage score: 4
Amaranthus retroflexus [2]
  AMARE damage score: 5
Echinochloa crus-galli [3]
  ECHCG damage score: 4
Setaria faberi [4]
  SETFA damage score: 3
Alopecurus myosuroides [5]
  ALOMY damage score: 3
Zea mays [6]
  ZEAMX damage score: 1
Abutilon theophrasti [7]
  ABUTH damage score: 4
Setaria faberi [8]
  SETFA damage score: 2
Amaranthus retroflexus [9]
  AMARE damage score: 4
Echinochloa crus-galli [10]
  ECHCG damage score: 3
Zea mays [11]
  ZEAMX damage score: 0
Alopecurus myosuroides [12]
  ALOMY damage score: 3
